What follows are cell lines tested with C[C@]1(c2nc3c(C(N)=O)cccc3[nH]2)CCCN1 [Veliparib] + Nc1nc2[nH]cc(CCc3ccc(C(=O)N[C@@H](CCC(=O)O)C(=O)O)cc3)c2c(=O)[nH]1 [Pemetrexed] (partner 0.2 µM) (assay: relative viability (nuclei count vs DMSO), 5 days (fraction); higher = more cells survive). Details: first compound 0.02 µM.
Outline: (§1)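 Medians of duplicate plates are given as relative viability. That measure is the nuclei count in treated wells divided by the count in vehicle wells. Counts were taken on 4× images of lung cancer cell lines in 1536-well plates, 5 days after pin-tool dosing the day after seeding with one drug alone or a fixed anchor-drug dose plus five library-drug doses (not always all listed) in √10 steps.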

Cell Line	relative viability
LK-2	0.324
NCI-H522	0.981
LCLC-103H	0.447
NCI-H1563	0.694
NCI-H650	0.992
HCC-44	0.606
NCI-H1792	0.724
NCI-H661	0.973

Same assay, conditions: first compound 0.06325 µM

Cell Line	relative viability
NCI-H2342	0.721
LU99A	0.184
NCI-H1975	0.332
H3255	0.561
NCI-H2023	0.212
SK-LU-1	1.03
NCI-H1734	0.396
NCI-H1437	0.276
NCI-H596	0.451
HCC-15	0.214
NCI-H460	0.0618
EMC-BAC-2	0.408
NCI-H2009	0.952
COR-L 105	1.09
NCI-H1395	0.886
NCI-H520	0.657
NCI-H358	0.173
HCC-78	0.925
EKVX	0.391
NCI-H1650	0.332
EPLC-272H	0.273
LK-2	0.307
SW 900	0.492
NCI-H522	0.814
LCLC-103H	0.49
NCI-H1563	0.766
NCI-H650	0.895
HCC-44	0.656
NCI-H1792	0.503
NCI-H661	0.897

Same assay, conditions: first compound 0.2 µM

Cell Line	relative viability
NCI-H2342	0.744
LU99A	0.205
NCI-H1975	0.295
H3255	0.548
NCI-H2023	0.27
NCI-H2405	1.11
SK-LU-1	1.15
NCI-H1734	0.398
NCI-H1437	0.325
NCI-H596	0.463
HCC-15	0.228
NCI-H460	0.0599
EMC-BAC-2	0.438
NCI-H2009	0.957
COR-L 105	1.27
NCI-H1395	0.768

Cell Line	relative viability
NCI-H520	0.904
NCI-H358	0.165
HCC-78	0.91
EKVX	0.421
NCI-H1650	0.373
EPLC-272H	0.359
LK-2	0.311
SW 900	0.493
NCI-H522	0.761
LCLC-103H	0.454
NCI-H1563	0.742
NCI-H650	0.868
HCC-44	0.655
NCI-H1792	0.653
NCI-H661	0.918

Same assay, conditions: first compound 0.6325 µM

Cell Line	relative viability
NCI-H2342	0.784
LU99A	0.196
NCI-H1975	0.292
H3255	0.53
NCI-H2023	0.221
NCI-H2405	0.978
SK-LU-1	0.92
NCI-H1734	0.389
NCI-H1437	0.356
NCI-H596	0.509
HCC-15	0.2
NCI-H460	0.0593
EMC-BAC-2	0.442
NCI-H2009	0.978
COR-L 105	1.19
NCI-H1395	0.792

Cell Line	relative viability
NCI-H520	0.637
NCI-H1648	1.02
NCI-H358	0.146
HCC-78	0.494
EKVX	0.461
NCI-H1650	0.331
EPLC-272H	0.283
LK-2	0.203
SW 900	0.467
NCI-H522	1.16
LCLC-103H	0.422
NCI-H1563	0.728
NCI-H650	0.822
HCC-44	0.59
NCI-H1792	0.786
NCI-H661	0.865

Same assay, conditions: first compound 2 µM

Cell Line	relative viability
NCI-H2342	0.771
LU99A	0.181
NCI-H1975	0.311
H3255	0.629
NCI-H2023	0.231
NCI-H2405	1.04
SK-LU-1	0.981
NCI-H1734	0.392
NCI-H1437	0.34
NCI-H596	0.474
HCC-15	0.239
NCI-H460	0.0663
EMC-BAC-2	0.502
NCI-H2009	1.07
COR-L 105	1.01
NCI-H1395	0.653

Cell Line	relative viability
NCI-H520	0.674
NCI-H1648	0.709
NCI-H358	0.176
HCC-78	0.853
EKVX	0.444
NCI-H1650	0.362
EPLC-272H	0.418
LK-2	0.299
SW 900	0.511
NCI-H522	0.785
LCLC-103H	0.478
NCI-H1563	0.685
NCI-H650	0.961
HCC-44	0.63
NCI-H1792	0.66
NCI-H661	0.901

The cell lines below were run with C[C@]1(c2nc3c(C(N)=O)cccc3[nH]2)CCCN1 [Veliparib] + COc1cc2c(Oc3ccc(NC(=O)C4(C(=O)Nc5ccc(F)cc5)CC4)cc3F)ccnc2cc1OCCCN1CCOCC1 [Foretinib] (partner 0.25 µM) in the same assay as above. Details: first compound 0.02 µM.
Outline: as §1

Cell Line	relative viability
NCI-H2342	1.16
NCI-H1623	0.639
LU99A	0.75
NCI-H1975	1.12
H3255	0.739
NCI-H2023	0.78
NCI-H2405	1.09
SK-LU-1	0.874
NCI-H1734	0.797
NCI-H1437	1.12
NCI-H596	0.967
NCI-H460	0.994
EMC-BAC-2	0.999
IA-LM	1.3
NCI-H2009	1.35
COR-L 105	1.17

Cell Line	relative viability
NCI-H1395	0.956
NCI-H520	0.824
NCI-H358	0.723
HCC-78	0.557
EKVX	0.395
EBC-1	0.0919
NCI-H1299	1.16
EPLC-272H	0.743
A549	1.07
LCLC-103H	0.712
NCI-H1563	0.845
NCI-H727	1.22
NCI-H650	1.06
Calu-6	0.967
NCI-H661	0.999

Same assay, conditions: first compound 0.06325 µM

Cell Line	relative viability
NCI-H2342	1.05
NCI-H1623	0.796
LU99A	0.744
NCI-H1975	0.96
H3255	0.462
NCI-H2023	0.691
NCI-H2405	0.937
SK-LU-1	0.756
NCI-H1734	0.85
NCI-H1437	1.17
ABC-1	0.858
NCI-H596	0.823
HCC-15	1.01
NCI-H460	0.909
EMC-BAC-2	0.911
IA-LM	1.21
NCI-H2009	1.21
COR-L 105	1

Cell Line	relative viability
NCI-H1395	0.898
NCI-H520	0.763
NCI-H358	0.647
HCC-78	0.557
EKVX	0.386
EBC-1	0.11
NCI-H1299	1.04
NCI-H1650	0.895
EPLC-272H	0.609
LK-2	1.26
A549	0.878
LCLC-103H	0.711
NCI-H1563	0.917
NCI-H727	0.66
NCI-H650	0.95
Calu-6	0.82
NCI-H661	1.02

Same assay, conditions: first compound 0.2 µM

Cell Line	relative viability
NCI-H2342	1.06
NCI-H1623	0.855
LU99A	0.752
NCI-H1975	0.903
H3255	0.811
NCI-H2023	0.852
NCI-H2405	1.08
SK-LU-1	0.899
NCI-H1734	0.886
NCI-H1437	1.2
ABC-1	1.12
NCI-H596	1.02
HCC-15	1.05
NCI-H460	0.952
EMC-BAC-2	1.11
IA-LM	1.2
NCI-H2009	1.17
COR-L 105	1.1
NCI-H1395	0.957

Cell Line	relative viability
NCI-H520	0.805
NCI-H358	0.623
HCC-78	0.568
EKVX	0.728
EBC-1	0.12
NCI-H1299	1.05
NCI-H1650	1.35
EPLC-272H	0.677
LK-2	1.32
A549	0.962
SW 900	0.905
LCLC-103H	0.95
NCI-H1563	1.03
NCI-H727	0.816
NCI-H650	1.05
NCI-H1703	0.42
Calu-6	0.852
NCI-H661	0.866

Same assay, conditions: first compound 0.6325 µM

Cell Line	relative viability
NCI-H2342	1.01
NCI-H1623	0.811
LU99A	0.663
NCI-H1975	0.881
H3255	0.78
NCI-H2023	0.885
NCI-H2405	1.03
SK-LU-1	0.644
NCI-H1734	0.832
NCI-H1437	1.24
ABC-1	0.961
NCI-H596	0.773
HCC-15	1.05
NCI-H460	0.948
EMC-BAC-2	1.01
IA-LM	1.16
NCI-H2009	1.2
COR-L 105	1.07
NCI-H1395	0.795

Cell Line	relative viability
NCI-H520	0.601
NCI-H358	0.625
HCC-78	0.539
EKVX	0.834
EBC-1	0.12
NCI-H1299	1.04
NCI-H1650	0.98
EPLC-272H	0.659
LK-2	1.13
A549	0.807
SW 900	0.781
LCLC-103H	0.701
NCI-H1563	0.918
NCI-H727	0.694
NCI-H650	1
NCI-H1703	0.321
Calu-6	0.84
NCI-H661	0.892

Same assay, conditions: first compound 2 µM

Cell Line	relative viability
NCI-H2342	0.903
NCI-H1623	0.716
LU99A	0.721
NCI-H1975	0.979
H3255	0.795
NCI-H2023	0.788
NCI-H2405	1.07
SK-LU-1	0.902
NCI-H1734	0.836
NCI-H1437	1.23
ABC-1	1.15
NCI-H596	0.75
HCC-15	1.06
NCI-H460	0.983
EMC-BAC-2	1.02
IA-LM	1.12
NCI-H2009	1.28
COR-L 105	0.943
NCI-H1395	0.806

Cell Line	relative viability
NCI-H520	0.647
NCI-H358	0.573
HCC-78	0.571
EKVX	0.533
EBC-1	0.108
NCI-H1299	1.08
NCI-H1650	1.17
EPLC-272H	0.878
LK-2	1.15
A549	0.963
SW 900	0.945
LCLC-103H	0.767
NCI-H1563	1.05
NCI-H727	1.04
NCI-H650	1.09
NCI-H1703	0.355
Calu-6	0.969
NCI-H661	0.998
